In the assay the target is T1, SHP2 protein (Homo sapiens, UniProt Q06124).
T1 sequence (Q06124 1-593): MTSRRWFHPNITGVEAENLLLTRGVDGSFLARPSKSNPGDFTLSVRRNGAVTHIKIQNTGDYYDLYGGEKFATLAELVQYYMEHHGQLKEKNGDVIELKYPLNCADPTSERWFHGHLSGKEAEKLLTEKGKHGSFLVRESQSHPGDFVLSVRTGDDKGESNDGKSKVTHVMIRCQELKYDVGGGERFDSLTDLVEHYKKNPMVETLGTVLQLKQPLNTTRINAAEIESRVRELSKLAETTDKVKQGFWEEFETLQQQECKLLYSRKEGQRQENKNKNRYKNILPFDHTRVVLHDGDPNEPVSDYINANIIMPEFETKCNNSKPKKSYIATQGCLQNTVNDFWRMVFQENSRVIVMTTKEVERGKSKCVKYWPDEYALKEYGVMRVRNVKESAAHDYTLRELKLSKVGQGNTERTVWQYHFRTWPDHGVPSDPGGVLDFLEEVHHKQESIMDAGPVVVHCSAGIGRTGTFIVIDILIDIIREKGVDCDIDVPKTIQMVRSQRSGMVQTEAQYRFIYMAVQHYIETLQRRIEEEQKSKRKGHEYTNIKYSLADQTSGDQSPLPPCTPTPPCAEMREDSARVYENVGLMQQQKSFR
The experiment in a line: Measurement of SHP2 protein degradation in MV-4-11 cells (western blotting). In kind it is cell-based. The arrangement: endogenous in cells; host or cells: MV-4-11. Particulars: MV-4-11 cells, 24 hours. On the procedure:
Experimental Example 2: Measurement of SHP2 Protein Degradation in MV-4-11 Cells
MV-4-11 cells were treated with the synthesized Example compound, and the amount of SHP2 protein present in the cells was measured using western blotting detection. The protocol of the experiment conducted using MV-4-11 cells was as follows:
[Culture] MV-4-11 cells resuspended in IMDM MEDIUM (Hyclone, SH30228.01) containing 5% FBS (Hyclone, SV30207.02) and 1% Penicillin-streptomycin (Welgene, LS 202-02) were seeded at a density of 1×10^6/mL/well in a 12-well plate in an amount of 1 ml each.
[Compound treatment] The 12-well plate was treated as follows: Cells were treated with compounds at a final concentration of […] made by serial dilution of 10 mM stock with DMSO in 1/100 increments […]. After 24 hours, cells were harvested. For the negative control group, DMSO diluted 1/100 to the media (3 mL DMSO+297 mL media) was added.
[Harvest] Each well was collected in a 1.5 mL microtube by pipetting with a 1 mL pipette and centrifuged (500 g, 5 min, 4° C.). The supernatant was removed. It was washed with PBS, and then centrifuged again (500 g, 5 min, 4° C.). Thereafter, the supernatant was removed to prepare a pellet.
[Cell Lysis and Sample preparation] Lysis buffer was prepared as follows: […] of RIPA buffer (Biosesang, RC2038-050-00)+0.5 mM PMSF (SIGMA, P7626)+1× Protease/Phosphatase Inhibitor (Cell signaling, 5872S) per well was added and placed on ice for 30 minutes (vortexing at 0 and 30 minutes, respectively). After sonication process (10 seconds pulse, 30 seconds rest, 5 cycles, 70% amplification), centrifugation (15000 g, 15 min, 4° C.) was performed, and then only the supernatant was taken and transferred to a microtube. The sample was diluted ¼ with RIPA buffer in a 96-well plate, and mixed with A:B=50:1 of the BCA Protein Assay Kit (iNtRON, 21071). […] each of the mixture was left at 37° C. for 30 minutes, and cooled for 10 minutes. Then, absorbance was measured at 562 nm with the SYNERGY H1 microplate reader from BioTek. After making a sample by quantifying the protein with the measured value, boiling was performed at 70° C. for 10 minutes. At this time, the sample buffer used was a mixture of NuPAGE or Bolt 4× sample buffer (Invitrogen) and each 10× sample reducing agent according to the gel to be used, and RIPA buffer was used for protein dilution.
[Western blotting detection method] The same amount of sample was loaded on NuPAGE or Bolt Bis-tris 4-12% gradient gel and run (200 V, 35 minutes). It was transferred to 0.2 mm NC membrane with Trans-blot Turbo (BIO-RAD) (1.3 A constant, 25 V limit, 15 minutes). Blocking was performed at room temperature for 1 hour with Skim milk or Intercept Blocking Buffer (LI-COR, 927-60001):0.1% TBST=1:1. Anti-SHPTP2 Mouse (1:500 in 2% BSA/0.2% TBST, size: 70 kDa, Santacruz sc-7384) was incubated overnight at 4° C., and Anti-GAPDH Rabbit (1:2,000 in 2% BSA/0.2% TBST, size: 37 kDa, CST #2118) was incubated at room temperature for 1 hour 30 minutes or 3 hours. It was washed 3 times for 5 minutes each with 0.2% TBST washing buffer. Secondary antibody Anti-Rabbit IgG (1:5,000 in 2% BSA/0.2% TBST, CST), IRDye® 680RD Goat anti-Rabbit IgG Secondary Antibody (1:10,000 in 2% BSA/0.2% TBST, LI-COR 926-68071) were added and incubated for 45 minutes on a rocker at room temperature. It was washed 5 times for 5 minutes each with 0.2% TBST washing buffer and detected with LI-COR's Odyssey. At this time, SHPTP2 was detected using SuperSignal West Pico PLUS Chemiluminescent Substrate, and house-keeping genes were also detected.
In the results of Table 4 below, Compounds 1-7, 13-19, and 21-26 are results in KYSE-520 cells, and the others are results in MV-4-11 cells.
In general terms: Immunoblotting shows a protein as a band on a membrane.

The structures appear in SMILES notation.

Regarding `Cc1ncsc1-c1ccc(CNC(=O)[C@@H]2C[C@@H](O)CN2C(=O)[C@@H](NC(=O)C2(F)CC2)C(C)(C)C)c(OCCCN2CCC(CC(=O)Nc3cccc(Sc4cnc(N5CCC(C)(N)CC5)cn4)c3Cl)CC2)c1` [Example 8, (2S,4R)—N-(2-(3-(4-(2-((3-((5-(4-amino-4-methylpiperidin-1-yl)pyrazin-2-yl)thio)-2-chlorophenyl)amino)-2-oxoethyl)piperidin-1-yl)propoxy)-4-(4-methylthiazol-5-yl)benzyl)-1-((S)-2-(1-fluorocyclopropane-1-carboxamido)-3,3-dimethylbutanoyl)-4-hydroxypyrrolidine-2-carboxamide], the “SHP2 degradation (%) 10 nM” value worked out at 39.5%, the “SHP2 degradation (%) 100 nM” value was determined as 92.6% and the “SHP2 degradation (%) 1000 nM” value came to 96.5%.
In the case of `Cc1ncsc1-c1ccc(CNC(=O)[C@@H]2C[C@@H](O)CN2C(=O)[C@@H](NC(=O)C2(F)CC2)C(C)(C)C)c(OCCCN2CCC(CC(=O)Nc3cccc(Sc4ncc(N5CCC(C)(N)CC5)nc4N)c3Cl)CC2)c1` [Example 9, (2S,4R)—N-(2-(3-(4-(2-((3-((3-amino-5-(4-amino-4-methylpiperidin-1-yl)pyrazin-2-yl)thio)-2-chlorophenyl)amino)-2-oxoethyl)piperidin-1-yl)propoxy)-4-(4-methylthiazol-5-yl)benzyl)-1-((S)-2-(1-fluorocyclopropane-1-carboxamido)-3,3-dimethylbutanoyl)-4-hydroxypyrrolidine-2-carboxamide], the “SHP2 degradation (%) 10 nM” value is given as 39.6%, the “SHP2 degradation (%) 100 nM” value is listed as 93.3% and the “SHP2 degradation (%) 1000 nM” value came out at 95.6%.
Consider `Cc1ncsc1-c1ccc(CNC(=O)[C@@H]2C[C@@H](O)CN2C(=O)[C@@H](NC(=O)C2(F)CC2)C(C)(C)C)c(OCCCN2CCC(CC(=O)Nc3cccc(Sc4ncc(N5CCC(C)(CN)CC5)nc4N)c3Cl)CC2)c1` [Example 10, (2S,4R)—N-(2-(3-(4-(2-((3-((3-amino-5-(4-(aminomethyl)-4-methylpiperidin-1-yl)pyrazin-2-yl)thio)-2-chlorophenyl)amino)-2-oxoethyl)piperidin-1-yl)propoxy)-4-(4-methylthiazol-5-yl)benzyl)-1-((S)-2-(1-fluorocyclopropane-1-carboxamido)-3,3-dimethylbutanoyl)-4-hydroxypyrrolidine-2-carboxamide], for which the “SHP2 degradation (%) 10 nM” value stood at 33.7%, the “SHP2 degradation (%) 100 nM” value is on record as 90.9% and the “SHP2 degradation (%) 1000 nM” value worked out at 95.0%.
Regarding `Cc1ncsc1-c1ccc(CNC(=O)[C@@H]2C[C@@H](O)CN2C(=O)[C@@H](NC(=O)C2(F)CC2)C(C)(C)C)c(OCCCN2CCC(CC(=O)Nc3cccc(Sc4cnc(N5CC[C@H](CN)C5)cn4)c3Cl)CC2)c1` [Example 11, (2S,4R)—N-(2-(3-(4-(2-((3-((5-((R)-3-(aminomethyl)pyrrolidin-1-yl)pyrazin-2-yl)thio)-2-chlorophenyl)amino)-2-oxoethyl)piperidin-1-yl)propoxy)-4-(4-methylthiazol-5-yl)benzyl)-1-((S)-2-(1-fluorocyclopropane-1-carboxamido)-3,3-dimethylbutanoyl)-4-hydroxypyrrolidine-2-carboxamide], the “SHP2 degradation (%) 10 nM” value is on record as −8.9%, the “SHP2 degradation (%) 100 nM” value came out at 19.2% and the “SHP2 degradation (%) 1000 nM” value is 35.9%.
Regarding `CC(=O)N[C@H](C(=O)N1C[C@H](O)C[C@H]1C(=O)NCc1ccc(-c2scnc2C)cc1OCCCN1CCC(CC(=O)Nc2cccc(Sc3cnc(N4CCC(C)(CN)CC4)cn3)c2Cl)CC1)C(C)(C)C` [Example 12, (2S,4R)-1-((S)-2-acetamido-3,3-dimethylbutanoyl)-N-(2-(3-(4-(2-((3-((5-(4-(aminomethyl)-4-methylpiperidin-1-yl)pyrazin-2-yl)thio)-2-chlorophenyl)amino)-2-oxoethyl)piperidin-1-yl)propoxy)-4-(4-methylthiazol-5-yl)benzyl)-4-hydroxypyrrolidine-2-carboxamide], the “SHP2 degradation (%) 10 nM” value was found to be 23.9%, the “SHP2 degradation (%) 100 nM” value worked out at 88.4% and the “SHP2 degradation (%) 1000 nM” value was found to be 93.3%.
Turning to `Cc1ncsc1-c1ccc(CNC(=O)[C@@H]2C[C@@H](O)CN2C(=O)[C@@H](NC(=O)C2(F)CC2)C(C)(C)C)c(OCCCN2CCC(O)(CC(=O)Nc3cccc(Sc4cnc(N5CCC(C)(CN)CC5)cn4)c3Cl)CC2)c1` [Example 20], the “SHP2 degradation (%) 10 nM” value came to 54.9% and the “SHP2 degradation (%) 100 nM” value is reported as 99.0%.
Turning to `Cc1ncsc1-c1ccc(CNC(=O)[C@@H]2C[C@@H](O)CN2C(=O)[C@@H](NC(=O)C2(F)CC2)C(C)(C)C)c(OCCC2CCN(C(=O)C(=O)Nc3cccc(Sc4cnc(N5CCC(C)(CN)CC5)cn4)c3Cl)CC2)c1` [Example 27, (2S,4R)—N-(2-(2-(1-(2-((3-((5-(4-(aminomethyl)-4-methylpiperidin-1-yl)pyrazin-2-yl)thio)-2-chlorophenyl)amino)-2-oxoacetyl)piperidin-4-yl)ethoxy)-4-(4-methylthiazol-5-yl)benzyl)-1-((S)-2-(1-fluorocyclopropane-1-carboxamido)-3,3-dimethylbutanoyl)-4-hydroxypyrrolidine-2-carboxamide], the “SHP2 degradation (%) 10 nM” value was found to be 23.5%, the “SHP2 degradation (%) 100 nM” value is 72% and the “SHP2 degradation (%) 1000 nM” value turned out to be 91.5%.
For `Cc1ncsc1-c1ccc(CNC(=O)[C@@H]2C[C@@H](O)CN2C(=O)[C@@H](NC(=O)C2(F)CC2)C(C)(C)C)c(OCCCC2CCN(C(=O)C(=O)Nc3cccc(Sc4cnc(N5CCC(C)(CN)CC5)cn4)c3Cl)CC2)c1` [Example 28, (2S,4R)—N-(2-(3-(1-(2-((3-((5-(4-(aminomethyl)-4-methylpiperidin-1-yl)pyrazin-2-yl)thio)-2-chlorophenyl)amino)-2-oxoacetyl)piperidin-4-yl)propoxy)-4-(4-methylthiazol-5-yl)benzyl)-1-((S)-2-(1-fluorocyclopropane-1-carboxamido)-3,3-dimethylbutanoyl)-4-hydroxypyrrolidine-2-carboxamide], the “SHP2 degradation (%) 10 nM” value is reported as 19%, the “SHP2 degradation (%) 100 nM” value turned out to be 76.5% and the “SHP2 degradation (%) 1000 nM” value stood at 94%.

For the origin of these results see US20250230154A1, “COMPOUND HAVING SHP2 PROTEIN DEGRADING ACTIVITY, AND MEDICAL USES THEREOF” (UBIX THERAPEUTICS, INC., priority 2021, published 2025).
